Source: publication PMC4234447 (Journal of Medicinal Chemistry, 2014)

Key:
797 cell line = assay: Cell viability assay; type: cell-based; settings: read-out: 797 cellular EC50 (cellular potency)
BRD4 = BRD4 (Homo sapiens, UniProt O60885); assay: AlphaScreen BRD binding assay; settings: calculated from BRD4 potency

Row | Structure (SMILES) | EC50 (797 cell line) [nM] | ligand efficiency (as defined by Hopkins et al.) (BRD4)
1 | Cc1sc2c(c1C)C(c1ccc(Cl)cc1)=N[C@@H](CC(=O)OC(C)(C)C)c1nnc(C)n1-2 [Compound 1] | 71.7 | –
2 | Cc1noc(C)c1-c1ccc(C=O)cc1 [Compound 8] | – | 0.54
